± gives the expanded uncertainty stated by the source.
Details: Crystal 2; visual observation

CC(C)(C)P(=O)(O)C(C)(C)C [di-tert-butylphosphinic acid]
Triple point temperature: 37.8 ± 0.5 K

— the NIST ThermoML archive (doi:10.1016/j.tca.2010.12.008)
